In ChEMBL document CHEMBL5154752, “CLIPSing Melanotan-II to Discover Multiple Functionally Selective hMCR Agonists” (J Med Chem, 2022):

Key:
Melanocortin receptor 5 [1] = biological target: T1, Melanocortin receptor 5 (Homo sapiens, UniProt P33032); experiment: Agonist activity at human MC5R expressed in HEK293 cells assessed as maximal intracellular cAMP accumulation at 10 uM by fluorescence based analysis relative to control; format: functional, cell-based; details: filed as agonist
Melanocortin receptor 5 [2] = biological target: T1, Melanocortin receptor 5; experiment: Displacement of [125I]NDP-alpha-MSH from human MC5R expressed in HEK293 cells by competitive binding assay; format: cell-based
[3] = biological target: T2, Melanocyte-stimulating hormone receptor (Homo sapiens, UniProt Q01726); experiment: Agonist activity at human MC1R expressed in HEK293 cells assessed as maximal intracellular cAMP accumulation at 10 uM by fluorescence based analysis relative to control; format: functional, cell-based; details: filed as agonist
Target sequence in this assay (Q01726 whole entry, looked up): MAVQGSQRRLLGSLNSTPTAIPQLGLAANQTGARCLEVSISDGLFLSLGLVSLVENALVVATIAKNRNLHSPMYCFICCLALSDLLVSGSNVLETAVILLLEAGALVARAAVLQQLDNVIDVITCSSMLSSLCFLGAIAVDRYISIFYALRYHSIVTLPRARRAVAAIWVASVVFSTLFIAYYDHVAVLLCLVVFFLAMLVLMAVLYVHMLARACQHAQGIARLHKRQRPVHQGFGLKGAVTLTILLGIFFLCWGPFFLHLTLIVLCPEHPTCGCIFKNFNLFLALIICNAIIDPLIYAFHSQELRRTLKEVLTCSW

Melanocortin receptor 4 [4] = biological target: T3, Melanocortin receptor 4 (Homo sapiens, UniProt P32245); experiment: Displacement of [125I]NDP-alpha-MSH from human MC4R expressed in HEK293 cells by competitive binding assay; format: cell-based
[5] = biological target: T2, Melanocyte-stimulating hormone receptor; experiment: Agonist activity at human MC1R expressed in HEK293 cells assessed as maximal intracellular cAMP accumulation by fluorescence based analysis; format: functional, cell-based
Target sequence in this assay (Q01726 whole entry): as the sequence (Q01726 whole entry, looked up) above

Melanocortin receptor 5 [6] = biological target: T1, Melanocortin receptor 5; experiment: Agonist activity at human MC5R expressed in HEK293 cells assessed as cAMP accumulation at 10 uM by fluorescence based analysis relative to control; format: functional, cell-based
Melanocortin receptor 3 [7] = biological target: T4, Melanocortin receptor 3 (Homo sapiens, UniProt P41968); experiment: Agonist activity at human MC3R expressed in HEK293 cells assessed as maximal intracellular cAMP accumulation at 10 uM by fluorescence based analysis relative to control; format: functional, cell-based; details: filed as agonist
[8] = biological target: T2, Melanocyte-stimulating hormone receptor; experiment: Displacement of [125I]NDP-alpha-MSH from human MC1R expressed in HEK293 cells by competitive binding assay; format: cell-based
Target sequence in this assay (Q01726 whole entry): as the sequence (Q01726 whole entry, looked up) above

Melanocortin receptor 3 [9] = biological target: T4, Melanocortin receptor 3; experiment: Displacement of [125I]NDP-alpha-MSH from human MC3R expressed in HEK293 cells by competitive binding assay; format: cell-based
Melanocortin receptor 4 [10] = biological target: T3, Melanocortin receptor 4; experiment: Agonist activity at human MC4R expressed in HEK293 cells assessed as maximal intracellular cAMP accumulation by fluorescence based analysis; format: functional, cell-based
Melanocortin receptor 3 [11] = biological target: T4, Melanocortin receptor 3; experiment: Agonist activity at human MC3R expressed in HEK293 cells assessed as maximal intracellular cAMP accumulation by fluorescence based analysis; format: functional, cell-based
Melanocortin receptor 5 [12] = biological target: T1, Melanocortin receptor 5; experiment: Agonist activity at human MC5R expressed in HEK293 cells assessed as maximal intracellular cAMP accumulation by fluorescence based analysis; format: functional, cell-based

T4 sequence (P41968 whole entry): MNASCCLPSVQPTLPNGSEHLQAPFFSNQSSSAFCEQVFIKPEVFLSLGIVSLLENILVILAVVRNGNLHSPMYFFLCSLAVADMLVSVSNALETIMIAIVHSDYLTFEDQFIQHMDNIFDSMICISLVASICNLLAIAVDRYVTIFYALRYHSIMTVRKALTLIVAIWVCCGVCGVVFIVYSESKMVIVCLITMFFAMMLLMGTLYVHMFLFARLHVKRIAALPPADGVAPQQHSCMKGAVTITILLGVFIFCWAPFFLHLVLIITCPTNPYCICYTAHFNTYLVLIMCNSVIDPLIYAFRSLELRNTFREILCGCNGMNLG
T1 sequence (P33032 whole entry): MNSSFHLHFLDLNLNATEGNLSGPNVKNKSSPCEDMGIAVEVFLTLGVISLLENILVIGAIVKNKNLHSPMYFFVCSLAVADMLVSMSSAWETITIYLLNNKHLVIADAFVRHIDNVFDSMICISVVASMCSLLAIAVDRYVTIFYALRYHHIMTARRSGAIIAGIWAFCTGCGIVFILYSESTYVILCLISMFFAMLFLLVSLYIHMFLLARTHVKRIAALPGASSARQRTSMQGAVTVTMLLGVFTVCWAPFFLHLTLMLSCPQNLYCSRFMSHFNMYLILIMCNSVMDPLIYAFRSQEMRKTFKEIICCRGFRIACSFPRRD
T3 sequence (P32245 whole entry): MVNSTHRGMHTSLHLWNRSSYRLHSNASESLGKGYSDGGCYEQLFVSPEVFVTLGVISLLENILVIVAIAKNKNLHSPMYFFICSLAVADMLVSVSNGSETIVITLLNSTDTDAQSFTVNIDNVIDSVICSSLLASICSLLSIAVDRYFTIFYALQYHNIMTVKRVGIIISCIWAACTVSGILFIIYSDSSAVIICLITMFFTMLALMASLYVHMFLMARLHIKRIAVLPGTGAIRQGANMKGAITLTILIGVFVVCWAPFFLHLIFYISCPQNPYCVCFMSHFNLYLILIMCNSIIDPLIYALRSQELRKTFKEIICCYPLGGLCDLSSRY

| Structure (SMILES) | Activity (Melanocortin receptor 5 [1]) | IC50 (Melanocortin receptor 5 [2]) | Activity [3] | IC50 (Melanocortin receptor 4 [4]) | EC50 [5] | Activity (Melanocortin receptor 5 [6]) | Activity (Melanocortin receptor 3 [7]) | IC50 [8] | IC50 (Melanocortin receptor 3 [9]) | EC50 (Melanocortin receptor 4 [10]) | EC50 (Melanocortin receptor 3 [11]) | EC50 (Melanocortin receptor 5 [12]) |
| --- | --- | --- | --- | --- | --- | --- | --- | --- | --- | --- | --- | --- |
| CCCC[C@H](NC(C)=O)C(=O)N[C@H]1CSCc2ccccc2CSC(C)(C)[C@@H](C(N)=O)NC(=O)[C@H](Cc2c[nH]c3ccccc23)NC(=O)[C@H](CCCNC(=N)N)NC(=O)[C@@H](Cc2ccccc2)NC(=O)[C@H](Cc2c[nH]cn2)NC1=O | 100% | 46 nM | 100% | 45.8 nM | 6.1 nM | 0% | 100% | 44 nM | 74 nM | > 1000 nM | > 1000 nM |  |
| CCCC[C@H](NC(C)=O)C(=O)N[C@@H]1C(=O)N[C@@H](Cc2c[nH]cn2)C(=O)N[C@H](Cc2ccccc2)C(=O)N[C@@H](CCCNC(=N)N)C(=O)N[C@@H](Cc2c[nH]c3ccccc23)C(=O)N[C@H](C(N)=O)CSCc2ccc(cc2)CSC1(C)C |  | 422 nM |  | > 1000 nM |  |  |  | 227 nM | > 1000 nM |  |  |  |
| CCCC[C@H](NC(C)=O)C(=O)N[C@H]1CSCc2cccc(c2)CSC[C@@H](C(N)=O)NC(=O)[C@H](Cc2c[nH]c3ccccc23)NC(=O)[C@H](CCCNC(=N)N)NC(=O)[C@@H](Cc2ccccc2)NC(=O)[C@H](Cc2c[nH]cn2)NC1=O |  | 4.4 nM |  |  | 3 nM |  |  | 3.5 nM | 32 nM |  | 902 nM | > 1000 nM |
| CCCC[C@H](NC(C)=O)C(=O)N[C@H]1CSCc2cccc(c2)CSC(C)(C)[C@@H](C(N)=O)NC(=O)[C@H](Cc2c[nH]c3ccccc23)NC(=O)[C@H](CCCNC(=N)N)NC(=O)[C@@H](Cc2ccccc2)NC(=O)[C@H](Cc2c[nH]cn2)NC1=O |  | 30 nM |  |  | 6.5 nM |  |  | 9 nM | 71 nM |  | 435 nM | > 1000 nM |
| CCCC[C@H](NC(C)=O)C(=O)N[C@@H]1C(=O)N[C@@H](Cc2c[nH]cn2)C(=O)N[C@H](Cc2ccccc2)C(=O)N[C@@H](CCCNC(=N)N)C(=O)N[C@@H](Cc2c[nH]c3ccccc23)C(=O)N[C@H](C(N)=O)C(C)(C)SCc2ccc(cc2)CSC1(C)C |  | > 1000 nM |  | > 1000 nM |  |  |  | > 1000 nM | > 1000 nM |  |  |  |
| CCCC[C@H](NC(C)=O)C(=O)N[C@H]1CSCc2ccc(cc2)CSC(C)(C)[C@@H](C(N)=O)NC(=O)[C@H](Cc2c[nH]c3ccccc23)NC(=O)[C@H](CCCNC(=N)N)NC(=O)[C@@H](Cc2ccccc2)NC(=O)[C@H](Cc2c[nH]cn2)NC1=O | 100% | 69 nM | 100% | 57.2 nM | 3 nM |  | 100% | 19 nM | 64 nM | 219 nM | 246 nM | 48 nM |
| CCCC[C@H](NC(C)=O)C(=O)N[C@@H]1C(=O)N[C@@H](Cc2c[nH]cn2)C(=O)N[C@H](Cc2ccccc2)C(=O)N[C@@H](CCCNC(=N)N)C(=O)N[C@@H](Cc2c[nH]c3ccccc23)C(=O)N[C@H](C(N)=O)C(C)(C)SCc2ccccc2CSC1(C)C |  | 507 nM |  | > 1000 nM |  |  |  | 553 nM | 452 nM |  |  |  |
| CCCC[C@H](NC(C)=O)C(=O)N[C@H]1CSCc2ccccc2CSC[C@@H](C(N)=O)NC(=O)[C@H](Cc2c[nH]c3ccccc23)NC(=O)[C@H](CCCNC(=N)N)NC(=O)[C@@H](Cc2ccccc2)NC(=O)[C@H](Cc2c[nH]cn2)NC1=O | 100% | 78 nM | 100% | 9.1 nM | 107 nM |  | 100% | 275 nM | 302 nM | 360 nM | > 1000 nM | > 1000 nM |
| CCCC[C@H](NC(C)=O)C(=O)N[C@@H]1C(=O)N[C@@H](Cc2c[nH]cn2)C(=O)N[C@H](Cc2ccccc2)C(=O)N[C@@H](CCCNC(=N)N)C(=O)N[C@@H](Cc2c[nH]c3ccccc23)C(=O)N[C@H](C(N)=O)C(C)(C)SCc2cccc(c2)CSC1(C)C |  | 172 nM |  | > 1000 nM |  |  |  | 450 nM | 450 nM |  |  |  |
| CCCC[C@H](NC(C)=O)C(=O)N[C@@H]1C(=O)N[C@@H](Cc2c[nH]cn2)C(=O)N[C@H](Cc2ccccc2)C(=O)N[C@@H](CCCNC(=N)N)C(=O)N[C@@H](Cc2c[nH]c3ccccc23)C(=O)N[C@H](C(N)=O)CSCc2ccccc2CSC1(C)C |  | 157 nM |  | 619 nM |  |  |  | 150 nM | 222 nM |  |  |  |
| CCCC[C@H](NC(C)=O)C(=O)N[C@H]1CSCc2ccc(cc2)CSC[C@@H](C(N)=O)NC(=O)[C@H](Cc2c[nH]c3ccccc23)NC(=O)[C@H](CCCNC(=N)N)NC(=O)[C@@H](Cc2ccccc2)NC(=O)[C@H](Cc2c[nH]cn2)NC1=O |  | 2 nM |  |  | 4 nM |  |  | 7.3 nM | 24 nM |  | 645 nM | > 1000 nM |
| CCCC[C@H](NC(C)=O)C(=O)N[C@@H]1C(=O)N[C@@H](Cc2c[nH]cn2)C(=O)N[C@H](Cc2ccccc2)C(=O)N[C@@H](CCCNC(=N)N)C(=O)N[C@@H](Cc2c[nH]c3ccccc23)C(=O)N[C@H](C(N)=O)CSCc2cccc(c2)CSC1(C)C | 100% | 93.5 nM | 100% | 628 nM | > 1000 nM |  | 100% | 70 nM | 244 nM | 618 nM | 9.4 nM | 126 nM |
